Read-outs that look alike come from different tables or passages of the source. A value given as a limit tells only on which side of the number the result lay.

One data set relates to replicon cells (1b-Con1). As to the kind of experiment: Replicon activity assay (1b-Con1 replicon cells, real-time RT-PCR). The format is cell-based, HCV. To be noted: Hepatitis C virus, 72 h, read-out: Replicon (1b) EC50. Background: Replicon systems follow genome replication, usually without infectious particles.
Data set [1] deals with replicon cells. As to the kind of experiment: Cytotoxicity in replicon cells (MTS assay, CellTiter 96). To be noted: CC50, MTS assay, three days post dosing.
For data set [2], the system named is replicon cells.
For data set [3], the target named is HCV NS5B RNA-dependent RNA polymerase (1b-BKΔ55) (Hepatitis C virus genotype 1b, UniProt P26663). As to the kind of experiment: biochemical.
Sequence of HCV NS5B RNA-dependent RNA polymerase (1b-BKΔ55) (P26663 2420-2955 limits assumed, stated change not applied): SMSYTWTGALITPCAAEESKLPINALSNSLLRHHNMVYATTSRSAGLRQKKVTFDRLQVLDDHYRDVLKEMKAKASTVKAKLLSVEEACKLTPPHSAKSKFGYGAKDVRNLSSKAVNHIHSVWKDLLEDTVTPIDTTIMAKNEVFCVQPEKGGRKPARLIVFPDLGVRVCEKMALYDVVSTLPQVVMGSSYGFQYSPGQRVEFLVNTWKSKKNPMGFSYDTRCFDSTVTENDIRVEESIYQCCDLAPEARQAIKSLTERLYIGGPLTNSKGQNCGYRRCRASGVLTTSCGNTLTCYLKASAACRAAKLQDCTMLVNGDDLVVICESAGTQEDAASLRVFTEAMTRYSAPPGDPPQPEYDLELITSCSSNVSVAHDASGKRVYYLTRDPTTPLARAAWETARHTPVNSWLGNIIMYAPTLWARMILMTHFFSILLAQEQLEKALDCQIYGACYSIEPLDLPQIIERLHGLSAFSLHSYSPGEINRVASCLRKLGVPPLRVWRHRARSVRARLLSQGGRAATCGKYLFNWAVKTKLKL
The next data set has as its system HCV replicon cells. As to the kind of experiment: Cell-based HCV replicon assay (replicon RNA by Taqman real time PCR). To be noted: read-out: 1b EC50.

In general, EC50 refers to the concentration needed to bring the measured effect to its halfway point. Take `COc1nc(N)nc2c1ncn2C1O[C@@H]2COP(=O)(OC(C)C)O[C@H]2[C@@]1(C)N=[N+]=[N-]` (stereo partly drawn): the EC50 with replicon cells (1b-Con1) (1b-Con1 replicon cells, three days post-dosing) was found to be 8300 nM. The same molecule displayed a Cytotoxicity in the data set on replicon cells [1] of more than 100 µM.

Molecule `CC(C)OC(=O)[C@H](C)NP(=O)(OC[C@H]1O[C@@H](n2ccc(=O)[nH]c2=O)[C@](C)(N=[N+]=[N-])[C@@H]1O)Oc1ccccc1` (stereo partly drawn) registered a Cytotoxicity with replicon cells [2] of more than 100 µM. Moreover, in the data set on replicon cells (1b-Con1), the EC50 was determined as 3100 nM. In the data set on replicon cells [2], `COC(=O)[C@H](C)NP(=O)(OC[C@H]1O[C@@H](n2ccc(N)nc2=O)[C@](C)(N=[N+]=[N-])[C@@H]1O)Oc1ccc(Cl)c(Cl)c1` (stereo partly drawn) displayed a Cytotoxicity of more than 100 µM. The EC50 with replicon cells (1b-Con1) turned out to be 35000 nM. On the same counts, the results for `CCOC(=O)[C@H](C)NP(=O)(OC[C@H]1O[C@@H](n2cnc3c(OC)nc(N)nc32)[C@](C)(N=[N+]=[N-])C1O)Oc1ccc(Cl)cc1` (stereo partly drawn) are more than 100 µM and 1200 nM. On the same counts, the results for `CCOC(=O)c1ccccc1OP(=O)(N[C@@H](C)C(=O)OC)OC[C@H]1O[C@@H](n2ccc(=O)[nH]c2=O)[C@](C)(N=[N+]=[N-])[C@@H]1O` (stereo partly drawn) are more than 100 µM and 2800 nM. As a reminder, the IC50 is the point on the concentration scale where inhibition reaches its midpoint. Read a low IC50 as higher potency. Regarding `C[C@@]1(N=[N+]=[N-])[C@H](O)[C@@H](COP(=O)(O)OP(=O)(O)OP(=O)(O)O)O[C@H]1n1ccc(=O)[nH]c1=O` [Compound 74], the IC50 in data set [3] turned out to be 55 µM. In turn, `C[C@@]1(N=[N+]=[N-])[C@H](O)C(COP(=O)(O)OP(=O)(O)OP(=O)(O)O)O[C@H]1n1ccc(N)nc1=O` (stereo partly drawn) [Compound 75] displayed a half-maximal inhibitory concentration (IC50) in data set [3] of 10 µM. The same measure, in the same setting: the value for `C[C@@]1(N=[N+]=[N-])[C@H](O)C(COP(=O)(O)OP(=O)(O)OP(=O)(O)O)O[C@H]1n1cnc2c(=O)[nH]c(N)nc21` (stereo partly drawn) [Compound 76] was 1.7 µM. Regarding `CCCCOC(=O)[C@H](C)NP(=O)(OC[C@H]1O[C@@H](n2ccc(=O)[nH]c2=O)[C@](C)(N=[N+]=[N-])[C@@H]1O)Oc1ccc(Cl)cc1` (stereo partly drawn) [Compound 369], the EC50 in the data set with HCV replicon cells (Hepatitis C virus, 72 h) came out at 500 nM.

For the molecule `CCCCOC(=O)[C@H](C)NP(=O)(OC[C@H]1O[C@@H](n2cnc3c(OCC)nc(N)nc32)[C@](C)(N=[N+]=[N-])[C@@H]1O)Oc1ccc(Cl)c(Cl)c1` (stereo partly drawn) [Compound 370], in the data set with HCV replicon cells (Hepatitis C virus, 72 h), the EC50 came to 10000 nM.

Take `CCCCOC(=O)[C@H](C)NP(=O)(OC[C@H]1O[C@@H](n2cnc3c(OCC)nc(N)nc32)[C@](C)(N=[N+]=[N-])[C@@H]1O)Oc1ccc2c(c1)OCO2` (stereo partly drawn) [Compound 371]: the EC50 with HCV replicon cells (Hepatitis C virus, 72 h) stood at 1400 nM. Still for that read-out and setting: to `CCCCOC(=O)[C@H](C)NP(=O)(OC[C@H]1O[C@@H](n2ccc(=O)[nH]c2=O)[C@](C)(N=[N+]=[N-])[C@@H]1O)Oc1ccc(Cl)c(Cl)c1` (stereo partly drawn) [Compound 372] belongs 6000 nM. Turning to `CCCOC(=O)[C@H](C)NP(=O)(OC[C@H]1O[C@@H](n2ccc(=O)[nH]c2=O)[C@](C)(N=[N+]=[N-])[C@@H]1O)Oc1cccc2ccccc12` (stereo partly drawn) [Compound 374], the EC50 in the data set on HCV replicon cells (Hepatitis C virus, 72 h) came out at 5600 nM.

`CCCCOC(=O)[C@H](C)NP(=O)(OC[C@H]1O[C@@H](n2ccc(=O)[nH]c2=O)[C@](C)(N=[N+]=[N-])[C@@H]1O)Oc1ccccc1Cl` (stereo partly drawn) [Compound 377]: the concentration giving a half-maximal response (EC50) in the data set with HCV replicon cells (Hepatitis C virus, 72 h) came to 6800 nM.

On to `COC(=O)[C@H](C)NP(=O)(OC[C@H]1O[C@@H](n2ccc(=O)[nH]c2=O)[C@](C)(N=[N+]=[N-])[C@@H]1O)Oc1cc(C)ccc1C(C)C` (stereo partly drawn) [Compound 379], for which the EC50 with HCV replicon cells (Hepatitis C virus, 72 h) was found to be 1200 nM. Take `COC(=O)[C@H](C)NP(=O)(OC[C@H]1O[C@@H](n2cnc3c(NC4CC4)nc(N)nc32)[C@](C)(N=[N+]=[N-])[C@@H]1O)Oc1ccccc1Cl` (stereo partly drawn) [Compound 385]: the EC50 in the data set with HCV replicon cells (Hepatitis C virus, 72 h) was 1400 nM. On the same count and under the same terms, the value for `COC(=O)[C@H](C)NP(=O)(OC[C@H]1O[C@@H](n2cnc3c(NC4CC4)nc(N)nc32)[C@](C)(N=[N+]=[N-])[C@@H]1O)Oc1ccccc1` (stereo partly drawn) [Compound 386] was 5300 nM; that for `CCOC(=O)[C@H](C)NP(=O)(OC[C@H]1O[C@@H](n2cnc3c(NC4CC4)nc(N)nc32)[C@](C)(N=[N+]=[N-])[C@@H]1O)Oc1ccccc1` (stereo partly drawn) [Compound 387] was 1900 nM. On to `COC(=O)[C@H](C)NP(=O)(OC[C@H]1O[C@@H](n2cnc3c(N4CCC4)nc(N)nc32)[C@](C)(N=[N+]=[N-])[C@@H]1O)Oc1ccccc1Cl` (stereo partly drawn) [Compound 388], for which, in the data set on HCV replicon cells (Hepatitis C virus, 72 h), the EC50 was 1600 nM.

On to `COC(=O)[C@H](C)NP(=O)(OC[C@H]1O[C@@H](n2cnc3c(N4CCC4)nc(N)nc32)[C@](C)(N=[N+]=[N-])[C@@H]1O)Oc1ccccc1Cl` (stereo partly drawn) [Compound 389], for which, in the data set on HCV replicon cells, the EC50 came out at 2300 nM. As to `COC(=O)[C@H](C)NP(=O)(OC[C@H]1O[C@@H](n2cnc3c(N4CCC4)nc(N)nc32)[C@](C)(N=[N+]=[N-])[C@@H]1O)Oc1ccccc1` (stereo partly drawn) [Compound 390], the EC50 with HCV replicon cells (Hepatitis C virus, 72 h) stood at 3400 nM. Still for that read-out and setting: to `CCOC(=O)[C@H](C)NP(=O)(OC[C@H]1O[C@@H](n2cnc3c(N4CCC4)nc(N)nc32)[C@](C)(N=[N+]=[N-])[C@@H]1O)Oc1ccccc1` (stereo partly drawn) [Compound 391] belongs 1500 nM; to `CC(C)OC(=O)[C@H](C)NP(=O)(OC[C@H]1O[C@@H](n2cnc3c(N4CCC4)nc(N)nc32)[C@](C)(N=[N+]=[N-])[C@@H]1O)Oc1ccccc1` (stereo partly drawn) [Compound 392], 5600 nM.

Regarding `CCOC(=O)[C@H](C)NP(=O)(OC[C@H]1O[C@@H](n2cnc3c(OCC)nc(N)nc32)[C@](C)(N=[N+]=[N-])[C@@H]1O)Oc1ccccc1` (stereo partly drawn) [Compound 558], in the data set on HCV replicon cells, the EC50 worked out at 1000 nM. On to `CCOP1(=O)OC[C@H]2O[C@@H](n3ccc(=O)[nH]c3=O)[C@](C)(N=[N+]=[N-])[C@@H]2O1` (stereo partly drawn) [Compound 567], for which the EC50 in the data set with HCV replicon cells (Hepatitis C virus, 72 h) is more than 100000 nM. For the molecule `CCOP1(=O)OC[C@H]2O[C@@H](n3ccc(=O)[nH]c3=O)[C@](C)(N=[N+]=[N-])[C@@H]2O1` (stereo partly drawn) [Compound 568], the EC50 in the data set on HCV replicon cells is more than 100000 nM. On to `CCOc1nc(N)nc2c1ncn2[C@@H]1O[C@@H]2COP(=O)(NC3CCCCC3)O[C@H]2[C@@]1(C)N=[N+]=[N-]` (stereo partly drawn) [Compound 572], for which the EC50 in the data set on HCV replicon cells (Hepatitis C virus, 72 h, HCV replicon 1b, cells harvested on day 3) turned out to be 100000 nM. Consider `CCOC(=O)[C@H](C)NP(=O)(OC[C@H]1O[C@@H](n2cnc3c(OC)nc(N)nc32)[C@](C)(N=[N+]=[N-])[C@@H]1O)Oc1ccccc1` (stereo partly drawn) [drawing 880], for which the Cytotoxicity with replicon cells [2] is more than 100 µM. Moreover, the EC50 with replicon cells (1b-Con1) worked out at 400 nM. For `CCOC(=O)[C@H](C)NP(=O)(OC[C@H]1O[C@@H](n2cnc3c(OCC)nc(N)nc32)[C@](C)(N=[N+]=[N-])[C@@H]1O)Oc1ccccc1` (stereo partly drawn) [drawing 881] the same measures were more than 100 µM and 1000 nM. For `CCOC(=O)[C@H](C)NP(=O)(OC[C@H]1O[C@@H](n2cnc3c(N4CCC4)nc(N)nc32)[C@](C)(N=[N+]=[N-])[C@@H]1O)Oc1ccccc1` (stereo partly drawn) [drawing 882], the Cytotoxicity in the data set on replicon cells [2] is more than 100 µM. For the same molecule, the EC50 in the data set on replicon cells (1b-Con1) turned out to be 1500 nM.

Consider `COC(=O)[C@H](C)NP(=O)(OC[C@H]1O[C@@H](n2cnc3c(NC4CC4)nc(N)nc32)[C@](C)(N=[N+]=[N-])[C@@H]1O)Oc1ccccc1Cl` (stereo partly drawn) [drawing 883], for which the Cytotoxicity in the data set with replicon cells [2] is more than 100 µM. Also, the EC50 in the data set with replicon cells (1b-Con1) is 1400 nM.

For the molecule `CC(C)OC(=O)[C@H](C)NP(=O)(OC[C@H]1O[C@@H](n2ccc(N)nc2=O)[C@](C)(N=[N+]=[N-])[C@@H]1O)Oc1ccccc1Cl` (stereo partly drawn) [drawing 885], in the data set with replicon cells [2], the Cytotoxicity was more than 100 µM. In the data set with replicon cells (1b-Con1), the EC50 was 1300 nM.

`CCCC(CCC)COC(=O)[C@H](C)NP(=O)(OC[C@H]1O[C@@H](n2ccc(=O)[nH]c2=O)[C@](C)(N=[N+]=[N-])[C@@H]1O)Oc1ccccc1` (stereo partly drawn) [drawing 886] showed a Cytotoxicity in the data set on replicon cells [2] of 83 µM. The EC50 in the data set on replicon cells (1b-Con1) stood at 2100 nM. `CCOc1nc(N)nc2c1ncn2[C@@H]1O[C@H](COP(=O)(N[C@@H](C)C(=O)OC)Oc2ccc(Cl)cc2)[C@@H](O)[C@@]1(C)N=[N+]=[N-]` (stereo partly drawn) [drawing 887] showed a Cytotoxicity with replicon cells [2] of 25 µM. Further, the EC50 in the data set on replicon cells (1b-Con1) is 900 nM. For `C[C@H](NP(=O)(OC[C@H]1O[C@@H](n2ccc(=O)[nH]c2=O)[C@](C)(N=[N+]=[N-])[C@@H]1O)Oc1ccc2c(c1)OCO2)C(=O)OCc1ccccc1` (stereo partly drawn) [drawing 888], the EC50 in the data set on replicon cells (1b-Con1) turned out to be 1200 nM. `CC(C)OC(=O)[C@H](C)NP(=O)(OC[C@H]1O[C@@H](n2ccc(=O)[nH]c2=O)[C@](C)(N=[N+]=[N-])[C@@H]1O)Oc1ccc(Cl)c(Cl)c1` (stereo partly drawn) [drawing 890] gave a Cytotoxicity with replicon cells [2] of 42 µM. The EC50 in the data set with replicon cells (1b-Con1) was determined as 7600 nM. For `CC(C)COC(=O)[C@H](C)NP(=O)(OC[C@H]1O[C@@H](n2ccc(=O)[nH]c2=O)[C@](C)(N=[N+]=[N-])[C@@H]1O)Oc1ccccc1` (stereo partly drawn) [drawing 892] the same measures were 55 µM and 800 nM.

Values taken from US9156872B2, “2′-azido substituted nucleoside derivatives and methods of use thereof for the treatment of viral diseases” (priority 2011, dated 2015).
